Measurements published in ChEMBL document CHEMBL1136175, “Synthesis and antimycobacterial activity of capuramycin analogues. Part 2: acylated derivatives of capuramycin-related compounds” (Bioorg Med Chem Lett, 2003).
≈ marks a conversion by molar mass, not a printed value.

Tests used:
[1] = tested on: Mycobacterium avium; test: Antimycobacterial activity against Mycobacterium avium NIHJ1605; type: functional
[2] = tested on: Mycolicibacterium smegmatis; test: Antimycobacterial activity was determined against Mycobacterium smegmatis SANK75075; type: functional
[3] = tested on: Mycobacterium kansasii; test: Antimycobacterial activity against Mycobacterium kansasii ATCC 12478; type: functional
[4] = tested on: Mycobacterium intracellulare; test: Antimycobacterial activity against Mycobacterium intracellular ATCC 1954 E-3; type: functional
[5] = target: T1, Phospho-N-acetylmuramoyl-pentapeptide-transferase (Escherichia coli K-12, UniProt P0A6W3); test: Inhibitory concentration required against Translocase I
T1 sequence (P0A6W3 whole entry): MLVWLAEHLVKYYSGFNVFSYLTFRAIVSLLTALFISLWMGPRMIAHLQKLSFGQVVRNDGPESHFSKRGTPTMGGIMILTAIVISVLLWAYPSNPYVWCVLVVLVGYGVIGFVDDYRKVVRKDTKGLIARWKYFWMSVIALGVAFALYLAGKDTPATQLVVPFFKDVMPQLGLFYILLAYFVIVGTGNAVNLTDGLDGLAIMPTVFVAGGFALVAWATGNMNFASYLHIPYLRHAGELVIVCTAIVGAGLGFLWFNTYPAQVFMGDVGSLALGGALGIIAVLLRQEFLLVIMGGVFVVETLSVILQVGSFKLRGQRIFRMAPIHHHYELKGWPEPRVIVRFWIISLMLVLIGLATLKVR

| SMILES | MIC [1] [µg/mL] | MIC [2] [µg/mL] | MIC [3] [µg/mL] | MIC [4] [µg/mL] | IC50 [5] [nM] |
| --- | --- | --- | --- | --- | --- |
| CCCCCCCCCCCCCCC(=O)O[C@@H]1[C@H](OC)[C@@H]([C@@H](O[C@H]2OC(C(=O)N[C@H]3CCC[C@@H](C)NC3=O)=C[C@H](O)[C@@H]2O)C(N)=O)O[C@H]1n1ccc(=O)[nH]c1=O | 0.125 (≈ 0.155 µM) | 6.25 (≈ 7.74 µM) | 4 (≈ 4.95 µM) | 0.25 (≈ 0.309 µM) | 2970 |
| CCCCCCCCCCCCCCCC(=O)O[C@@H]1[C@H](OC)[C@@H]([C@@H](O[C@H]2OC(C(=O)N[C@H]3CCC[C@@H](C)NC3=O)=C[C@H](O)[C@@H]2O)C(N)=O)O[C@H]1n1ccc(=O)[nH]c1=O | < 0.063 | 6.25 (≈ 7.6 µM) | 4 (≈ 4.87 µM) | 0.25 (≈ 0.304 µM) | 523 |
| CO[C@H]1[C@@H](O)[C@H](n2ccc(=O)[nH]c2=O)O[C@@H]1[C@@H](O[C@H]1OC(C(=O)N[C@H]2CCC[C@@H](C)NC2=O)=C[C@H](O)[C@@H]1O)C(N)=O | 8 (≈ 13.7 µM) | 6.25 (≈ 10.7 µM) | 16 (≈ 27.4 µM) | 4 (≈ 6.85 µM) | – |
| CCCCCCCCCCCCCCCCC(=O)O[C@@H]1[C@H](OC)[C@@H]([C@@H](O[C@H]2OC(C(=O)N[C@H]3CCC[C@@H](C)NC3=O)=C[C@H](O)[C@@H]2O)C(N)=O)O[C@H]1n1ccc(=O)[nH]c1=O | 2 (≈ 2.39 µM) | > 100 | 4 (≈ 4.78 µM) | 8 (≈ 9.57 µM) | – |
| CCCCCCCC/C=C\CCCCCCCC(=O)O[C@@H]1[C@H](OC)[C@@H]([C@@H](O[C@H]2OC(C(=O)N[C@H]3CCC[C@@H](C)NC3=O)=C[C@H](O)[C@@H]2O)C(N)=O)O[C@H]1n1ccc(=O)[nH]c1=O | – | 6.25 (≈ 7.37 µM) | – | – | – |
| CCCCCCCCCOC(=O)O[C@@H]1[C@H](OC)[C@@H]([C@@H](O[C@H]2OC(C(=O)N[C@H]3CCC[C@@H](C)NC3=O)=C[C@H](O)[C@@H]2O)C(N)=O)O[C@H]1n1ccc(=O)[nH]c1=O | – | 12.5 (≈ 16.6 µM) | – | – | 1860 |
| CCCCCCCCCCCCCCCCCC(=O)O[C@@H]1[C@H](OC)[C@@H]([C@@H](O[C@H]2OC(C(=O)N[C@H]3CCCCNC3=O)=C[C@H](O)[C@@H]2O)C(N)=O)O[C@H]1n1ccc(=O)[nH]c1=O | – | 50 (≈ 59.8 µM) | – | – | – |
| CCCCCCCCCCCCCCC(=O)O[C@@H]1[C@H](OC)[C@@H]([C@@H](O[C@H]2OC(C(=O)N[C@H]3CCCCNC3=O)=C[C@H](O)[C@@H]2O)C(N)=O)O[C@H]1n1ccc(=O)[nH]c1=O | 2 (≈ 2.52 µM) | 3.13 (≈ 3.94 µM) | 4 (≈ 5.04 µM) | 1 (≈ 1.26 µM) | – |
| CCCCCCCCCCCCCC(=O)O[C@@H]1[C@H](OC)[C@@H]([C@@H](O[C@H]2OC(C(=O)N[C@H]3CCCCNC3=O)=C[C@H](O)[C@@H]2O)C(N)=O)O[C@H]1n1ccc(=O)[nH]c1=O | 2 (≈ 2.56 µM) | 1.56 (≈ 2 µM) | 4 (≈ 5.13 µM) | 1 (≈ 1.28 µM) | – |
| CCCCCCCCCCCC(=O)O[C@@H]1[C@H](OC)[C@@H]([C@@H](O[C@H]2OC(C(=O)N[C@H]3CCCCNC3=O)=C[C@H](O)[C@@H]2O)C(N)=O)O[C@H]1n1ccc(=O)[nH]c1=O | < 0.063 | 3.13 (≈ 4.16 µM) | 0.125 (≈ 0.166 µM) | 0.125 (≈ 0.166 µM) | – |
| CO[C@H]1[C@@H](OC(=O)CC(c2ccccc2)c2ccccc2)[C@H](n2ccc(=O)[nH]c2=O)O[C@@H]1[C@@H](O[C@H]1OC(C(=O)N[C@H]2CCC[C@@H](C)NC2=O)=C[C@H](O)[C@@H]1O)C(N)=O | – | 25 (≈ 31.6 µM) | – | – | – |
| CCCCCCCCCC(=O)O[C@@H]1[C@H](OC)[C@@H]([C@@H](O[C@H]2OC(C(=O)N[C@H]3CCC[C@@H](C)NC3=O)=C[C@H](O)[C@@H]2O)C(N)=O)O[C@H]1n1ccc(=O)[nH]c1=O | < 0.063 | 6.25 (≈ 8.47 µM) | < 0.063 | < 0.063 | – |
| CO[C@H]1[C@@H](OC(=O)c2ccccc2)[C@H](n2ccc(=O)[nH]c2=O)O[C@@H]1[C@@H](O[C@H]1OC(C(=O)N[C@H]2CCC[C@@H](C)NC2=O)=C[C@H](O)[C@@H]1O)C(N)=O | – | 25 (≈ 36.4 µM) | – | – | – |
| CCCCCCCCCCCCCCCCCCCC(=O)O[C@@H]1[C@H](OC)[C@@H]([C@@H](O[C@H]2OC(C(=O)N[C@H]3CCC[C@@H](C)NC3=O)=C[C@H](O)[C@@H]2O)C(N)=O)O[C@H]1n1ccc(=O)[nH]c1=O | – | > 100 | – | – | 34200 |
| CC/C=C\C/C=C\C/C=C\CCCCCCCC(=O)O[C@@H]1[C@H](OC)[C@@H]([C@@H](O[C@H]2OC(C(=O)N[C@H]3CCC[C@@H](C)NC3=O)=C[C@H](O)[C@@H]2O)C(N)=O)O[C@H]1n1ccc(=O)[nH]c1=O | – | 3.13 (≈ 3.71 µM) | – | – | – |
| CCCCCCCCC(=O)O[C@@H]1[C@H](OC)[C@@H]([C@@H](O[C@H]2OC(C(=O)N[C@H]3CCC[C@@H](C)NC3=O)=C[C@H](O)[C@@H]2O)C(N)=O)O[C@H]1n1ccc(=O)[nH]c1=O | – | 25 (≈ 34.5 µM) | – | – | 235 |

| SMILES | MIC [1] [µg/mL] | MIC [2] [µg/mL] | MIC [3] [µg/mL] | MIC [4] [µg/mL] | IC50 [5] [nM] |
| --- | --- | --- | --- | --- | --- |
| CCCCCCCCCCC(C)C(=O)O[C@@H]1[C@H](OC)[C@@H]([C@@H](O[C@H]2OC(C(=O)N[C@H]3CCC[C@@H](C)NC3=O)=C[C@H](O)[C@@H]2O)C(N)=O)O[C@H]1n1ccc(=O)[nH]c1=O (some centres not stated) | – | 25 (≈ 32.1 µM) | – | – | 769 |
| CCCCCCCCCCCCCCCCC(=O)O[C@@H]1[C@H](OC)[C@@H]([C@@H](O[C@H]2OC(C(=O)N[C@H]3CCCCNC3=O)=C[C@H](O)[C@@H]2O)C(N)=O)O[C@H]1n1ccc(=O)[nH]c1=O | – | 50 (≈ 60.8 µM) | – | – | – |
| CCCCCCCCCCC(C)(C)C(=O)O[C@@H]1[C@H](OC)[C@@H]([C@@H](O[C@H]2OC(C(=O)N[C@H]3CCC[C@@H](C)NC3=O)=C[C@H](O)[C@@H]2O)C(N)=O)O[C@H]1n1ccc(=O)[nH]c1=O | – | 6.25 (≈ 7.87 µM) | – | – | 1260 |
| NNC(=O)c1ccncc1 [ISONIAZID] | 1 (≈ 7.29 µM) | – | 2 (≈ 14.6 µM) | 8 (≈ 58.3 µM) | – |
| CO[C@H]1/C=C/O[C@@]2(C)Oc3c(C)c(O)c4c(O)c(c(/C=N/N5CCN(C)CC5)c(O)c4c3C2=O)NC(=O)/C(C)=C\C=C\[C@H](C)[C@H](O)[C@@H](C)[C@@H](O)[C@@H](C)[C@H](OC(C)=O)[C@@H]1C [RIFAMPIN] | 0.125 (≈ 0.152 µM) | – | 0.25 (≈ 0.304 µM) | 0.125 (≈ 0.152 µM) | – |
| CCCCCCCCCCCCCCCCCCCCCC(=O)O[C@@H]1[C@H](OC)[C@@H]([C@@H](O[C@H]2OC(C(=O)N[C@H]3CCCCNC3=O)=C[C@H](O)[C@@H]2O)C(N)=O)O[C@H]1n1ccc(=O)[nH]c1=O | – | 100 (≈ 112 µM) | – | – | – |
| CCCCCCOC(=O)O[C@@H]1[C@H](OC)[C@@H]([C@@H](O[C@H]2OC(C(=O)N[C@H]3CCC[C@@H](C)NC3=O)=C[C@H](O)[C@@H]2O)C(N)=O)O[C@H]1n1ccc(=O)[nH]c1=O | – | 50 (≈ 70.3 µM) | – | – | 183 |
| CCCCC/C=C\C/C=C\CCCCCCCC(=O)O[C@@H]1[C@H](OC)[C@@H]([C@@H](O[C@H]2OC(C(=O)N[C@H]3CCC[C@@H](C)NC3=O)=C[C@H](O)[C@@H]2O)C(N)=O)O[C@H]1n1ccc(=O)[nH]c1=O | – | 6.25 (≈ 7.39 µM) | – | – | – |
| CCCCCCCCCCCCCCCC(=O)O[C@@H]1[C@H](OC)[C@@H]([C@@H](O[C@H]2OC(C(=O)N[C@H]3CCCCNC3=O)=C[C@H](O)[C@@H]2O)C(N)=O)O[C@H]1n1ccc(=O)[nH]c1=O | 1 (≈ 1.24 µM) | 1.56 (≈ 1.93 µM) | 4 (≈ 4.95 µM) | 2 (≈ 2.48 µM) | – |
| CCCCCCCCCCCCCCCCCCCCCC(=O)O[C@@H]1[C@H](OC)[C@@H]([C@@H](O[C@H]2OC(C(=O)N[C@H]3CCC[C@@H](C)NC3=O)=C[C@H](O)[C@@H]2O)C(N)=O)O[C@H]1n1ccc(=O)[nH]c1=O | – | > 100 | – | – | 16600 |
| CO[C@H]1[C@@H](OC(=O)C(C)c2ccc([N+](=O)[O-])cc2)[C@H](n2ccc(=O)[nH]c2=O)O[C@@H]1[C@@H](O[C@H]1OC(C(=O)N[C@H]2CCC[C@@H](C)NC2=O)=C[C@H](O)[C@@H]1O)C(N)=O (some centres not stated) | – | 25 (≈ 32.9 µM) | – | – | – |
| CCCCCCCCCCCCCCCCCCCC(=O)O[C@@H]1[C@H](OC)[C@@H]([C@@H](O[C@H]2OC(C(=O)N[C@H]3CCCCNC3=O)=C[C@H](O)[C@@H]2O)C(N)=O)O[C@H]1n1ccc(=O)[nH]c1=O | – | 50 (≈ 57.9 µM) | – | – | – |
| CCCCCCCC/C=C\CCCCCCCCCC(=O)O[C@@H]1[C@H](OC)[C@@H]([C@@H](O[C@H]2OC(C(=O)N[C@H]3CCC[C@@H](C)NC3=O)=C[C@H](O)[C@@H]2O)C(N)=O)O[C@H]1n1ccc(=O)[nH]c1=O | – | 50 (≈ 57.1 µM) | – | – | – |
| CCCCCCCCCCCCCCCCCC(=O)O[C@@H]1[C@H](OC)[C@@H]([C@@H](O[C@H]2OC(C(=O)N[C@H]3CCC[C@@H](C)NC3=O)=C[C@H](O)[C@@H]2O)C(N)=O)O[C@H]1n1ccc(=O)[nH]c1=O | – | > 100 | – | – | 9410 |
| CCCCCCCC/C=C\CCCCCCCCCCCC(=O)O[C@@H]1[C@H](OC)[C@@H]([C@@H](O[C@H]2OC(C(=O)N[C@H]3CCC[C@@H](C)NC3=O)=C[C@H](O)[C@@H]2O)C(N)=O)O[C@H]1n1ccc(=O)[nH]c1=O | – | > 100 | – | – | – |
